Experimental data as given in patent publication US6358947B1 (American Home Products Corporation, priority 1999, dated 2002).

Experiments:
Format in all cases: cell-based
human PR [1] = target: T1, human PR (Homo sapiens, UniProt P06401); test: Cotransfection assay, PR antagonist, CV-1 cells; conditions: percent maximal response relative to reference antagonist
T1 sequence (P06401 1-933): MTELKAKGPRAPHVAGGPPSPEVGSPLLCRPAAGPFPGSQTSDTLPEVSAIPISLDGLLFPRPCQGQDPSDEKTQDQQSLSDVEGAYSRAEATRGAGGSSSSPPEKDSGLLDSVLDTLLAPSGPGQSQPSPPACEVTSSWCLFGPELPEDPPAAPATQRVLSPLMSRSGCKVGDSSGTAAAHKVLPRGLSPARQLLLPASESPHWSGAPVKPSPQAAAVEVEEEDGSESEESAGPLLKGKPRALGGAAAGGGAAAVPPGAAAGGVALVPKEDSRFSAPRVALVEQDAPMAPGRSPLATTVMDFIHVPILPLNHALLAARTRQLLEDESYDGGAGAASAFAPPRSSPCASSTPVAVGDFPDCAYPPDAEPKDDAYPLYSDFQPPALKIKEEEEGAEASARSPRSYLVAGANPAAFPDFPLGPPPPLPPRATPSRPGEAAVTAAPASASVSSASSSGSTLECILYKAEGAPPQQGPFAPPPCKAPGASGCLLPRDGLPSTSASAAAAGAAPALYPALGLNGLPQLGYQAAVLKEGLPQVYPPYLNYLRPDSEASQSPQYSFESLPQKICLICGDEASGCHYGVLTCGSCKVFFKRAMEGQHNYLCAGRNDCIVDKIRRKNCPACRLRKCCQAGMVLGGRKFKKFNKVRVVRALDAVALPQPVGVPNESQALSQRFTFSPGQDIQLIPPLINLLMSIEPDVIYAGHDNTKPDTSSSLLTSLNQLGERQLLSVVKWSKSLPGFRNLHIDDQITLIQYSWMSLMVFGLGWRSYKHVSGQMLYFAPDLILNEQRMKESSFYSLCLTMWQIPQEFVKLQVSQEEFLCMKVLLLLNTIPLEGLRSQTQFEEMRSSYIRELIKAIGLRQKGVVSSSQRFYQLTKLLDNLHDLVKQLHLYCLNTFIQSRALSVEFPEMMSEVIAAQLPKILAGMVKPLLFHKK
Excerpt: (§1) The cotransfection assay provides a method for identifying functional agonists and partial agonists that mimic, or antagonists that inhibit, the effect of native hormones, and for quantifying their activity for responsive intracellular receptor (IR) proteins. In this regard, the cotransfection assay mimics an in vivo system in the laboratory. Importantly, activity in the cotransfection assay correlates very well with known in vivo activity, such that the cotransfection assay functions as a qualitative and quantitative predictor of a tested compound's in vivo pharmacology.
(§2) In the cotransfection assay, a cloned cDNA for an IR (e.g., human PR, AR or GR) under the control of a constitutive promoter (e.g., the SV 40 promoter) is introduced by transfection (a procedure to induce cells to take up foreign genes) into a background cell substantially devoid of endogenous IRs. This introduced gene directs the recipient cells to make the IR protein of interest. A second gene is also introduced (cotransfected) into the same cells in conjunction with the IR gene. This second gene, comprising the cDNA for a reporter protein, such as firefly luciferase (LUC), is controlled by an appropriate hormone responsive promoter containing a hormone response element (HRE). This reporter plasmid functions as a reporter for the transcription-modulating activity of the target IR. Thus, the reporter acts as a surrogate for the products (mRNA, then protein) normally expressed by a gene under control of the target receptor and its native hormone.
(§3) The cotransfection assay can detect small molecule agonists or antagonists of target IRs. Exposing the transfected cells to an agonist ligand compound increases reporter activity in the transfected cells. This activity can be conveniently measured, e.g., by increasing luciferase production, which reflects compound-dependent, IR-mediated increases in reporter transcription. […] Increasing concentrations of a suspected antagonist will decrease the reporter signal (e.g., luciferase production). The cotransfection assay is therefore useful to detect both agonists and antagonists of specific IRs. Furthermore, it determines not only whether a compound interacts with a particular IR, but whether this interaction mimics (agonizes) or blocks (antagonizes) the effects of the native regulatory molecules on target gene expression, as well as the specificity and strength of this interaction.

human PR [2] = target: T1, human PR; test: Cotransfection assay, PR agonist, CV-1 cells
Excerpt: as §1, §2, §3

hGR = target: T2, hGR (Homo sapiens, UniProt P04150); test: Cotransfection assay, GR antagonist; conditions: read-out: GR Potency Antag
T2 sequence (P04150 1-777): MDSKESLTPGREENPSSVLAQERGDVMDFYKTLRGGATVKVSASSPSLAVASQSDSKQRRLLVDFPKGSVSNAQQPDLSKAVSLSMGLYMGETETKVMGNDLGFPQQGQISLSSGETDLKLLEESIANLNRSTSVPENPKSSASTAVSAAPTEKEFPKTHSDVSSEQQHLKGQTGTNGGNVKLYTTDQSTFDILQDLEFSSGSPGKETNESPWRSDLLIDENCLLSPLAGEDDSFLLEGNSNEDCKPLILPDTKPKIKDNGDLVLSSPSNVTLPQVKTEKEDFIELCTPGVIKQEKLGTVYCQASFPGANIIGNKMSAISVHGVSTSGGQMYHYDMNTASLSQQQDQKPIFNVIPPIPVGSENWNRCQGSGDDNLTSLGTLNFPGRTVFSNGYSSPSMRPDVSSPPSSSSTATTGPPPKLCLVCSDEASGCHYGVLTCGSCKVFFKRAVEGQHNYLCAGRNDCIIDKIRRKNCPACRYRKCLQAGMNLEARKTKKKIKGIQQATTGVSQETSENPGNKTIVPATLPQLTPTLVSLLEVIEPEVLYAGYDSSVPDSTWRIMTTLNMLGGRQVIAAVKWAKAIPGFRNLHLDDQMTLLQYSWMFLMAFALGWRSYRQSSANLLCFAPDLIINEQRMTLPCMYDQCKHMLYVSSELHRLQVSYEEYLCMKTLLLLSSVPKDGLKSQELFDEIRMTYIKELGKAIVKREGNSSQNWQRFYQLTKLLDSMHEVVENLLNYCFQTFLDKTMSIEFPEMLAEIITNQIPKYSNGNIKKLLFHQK
Excerpt: as §1, §2, §3

hER [3] = target: T3, hER (Homo sapiens, UniProt P03372); test: Cotransfection assay, ER agonist; conditions: read-out: ER Potency Agon
T3 sequence (P03372 1-595): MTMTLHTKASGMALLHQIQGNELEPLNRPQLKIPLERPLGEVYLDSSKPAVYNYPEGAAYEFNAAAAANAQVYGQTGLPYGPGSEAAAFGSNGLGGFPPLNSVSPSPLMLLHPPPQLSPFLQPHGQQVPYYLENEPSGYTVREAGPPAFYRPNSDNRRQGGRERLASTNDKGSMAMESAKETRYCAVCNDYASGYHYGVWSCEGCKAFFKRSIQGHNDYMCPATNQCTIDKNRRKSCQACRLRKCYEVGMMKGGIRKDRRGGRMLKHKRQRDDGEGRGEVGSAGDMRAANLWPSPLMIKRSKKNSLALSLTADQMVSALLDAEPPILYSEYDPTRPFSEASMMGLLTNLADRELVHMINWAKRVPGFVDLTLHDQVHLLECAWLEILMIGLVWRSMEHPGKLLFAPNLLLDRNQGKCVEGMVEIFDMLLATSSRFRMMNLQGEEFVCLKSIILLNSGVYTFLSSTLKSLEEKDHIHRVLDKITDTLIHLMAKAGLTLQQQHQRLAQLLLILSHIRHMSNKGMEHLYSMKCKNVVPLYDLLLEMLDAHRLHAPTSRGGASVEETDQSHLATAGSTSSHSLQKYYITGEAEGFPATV
Excerpt: as §1, §2, §3

hER [4] = target: T3, hER; test: Cotransfection assay, ER antagonist; conditions: read-out: ER Potency Antag
Excerpt: as §1, §2, §3

hMR = target: T4, hMR (Homo sapiens, UniProt P08235); test: Cotransfection assay, MR antagonist; conditions: read-out: MR Potency Antag
T4 sequence (P08235 1-984): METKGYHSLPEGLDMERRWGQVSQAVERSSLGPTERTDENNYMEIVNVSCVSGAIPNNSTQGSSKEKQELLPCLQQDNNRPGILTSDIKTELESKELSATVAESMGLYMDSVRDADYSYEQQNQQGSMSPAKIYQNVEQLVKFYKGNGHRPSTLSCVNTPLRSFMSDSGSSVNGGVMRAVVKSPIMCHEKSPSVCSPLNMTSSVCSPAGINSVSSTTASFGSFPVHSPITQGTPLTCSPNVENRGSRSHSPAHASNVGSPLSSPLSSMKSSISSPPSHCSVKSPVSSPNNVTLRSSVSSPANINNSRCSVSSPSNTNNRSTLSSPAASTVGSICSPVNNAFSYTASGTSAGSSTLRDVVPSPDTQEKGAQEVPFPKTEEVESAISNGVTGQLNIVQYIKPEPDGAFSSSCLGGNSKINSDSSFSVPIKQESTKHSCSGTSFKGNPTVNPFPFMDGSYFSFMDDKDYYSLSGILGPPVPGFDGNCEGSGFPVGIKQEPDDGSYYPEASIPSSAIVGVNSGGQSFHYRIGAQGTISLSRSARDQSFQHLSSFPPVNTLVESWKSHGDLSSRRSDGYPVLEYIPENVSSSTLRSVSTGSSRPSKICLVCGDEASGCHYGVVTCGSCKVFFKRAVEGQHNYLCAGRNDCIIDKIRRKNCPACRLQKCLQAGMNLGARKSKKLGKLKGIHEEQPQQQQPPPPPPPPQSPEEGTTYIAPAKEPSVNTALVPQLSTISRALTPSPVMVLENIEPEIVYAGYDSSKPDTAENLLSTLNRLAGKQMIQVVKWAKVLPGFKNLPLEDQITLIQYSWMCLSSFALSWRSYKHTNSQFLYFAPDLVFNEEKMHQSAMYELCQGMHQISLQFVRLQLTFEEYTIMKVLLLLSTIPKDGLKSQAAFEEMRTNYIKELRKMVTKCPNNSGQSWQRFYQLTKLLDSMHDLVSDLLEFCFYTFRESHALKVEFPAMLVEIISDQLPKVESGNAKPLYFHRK
Excerpt: as §1, §2, §3

Compound	PR Antagonist CV-1 Cells Efficacy (human PR [1]) [%]	PR Agonist CV-1 Cells Efficacy (human PR [2])	IC50 (hGR) [nM]	EC50 (hER [3]) [µM]	IC50 (hER [4]) [µM]	IC50 (hMR) [µM]	EC50 (human PR [2]; Table 2, read-out: PR Potency Agon) [µM]
CN(C)c1ccc([C@H]2C[C@]3(C)[C@@H](CC[C@]3(O)CCCO)[C@@H]3CCC4=CC(=O)CCC4=C32)cc1 [ZK299, reference compound]	99	na (key: na = not active (i.e. efficacy of <20 and potency of >10,000))					
CC(=O)S[C@@H]1CC2=CC(=O)CC[C@]2(C)[C@H]2CC[C@@]3(C)[C@@H](CC[C@@]34CCC(=O)O4)[C@H]12 [Spir, reference compound]			2000	> 10	> 10		
CC(C)C(=O)Nc1ccc([N+](=O)[O-])c(C(F)(F)F)c1 [Flut, reference compound]				> 10	> 10	> 10	> 10
